Where two headings read alike, the source gives them in different places.
How the values were obtained:
CCR4 receptor = molecular target: T1, CCR4 receptor (Homo sapiens, UniProt P51679); test: Inhibition of MDC/TARC/C27 mediated chemotactic response of CCR4-transfected HEK293 cells (Boyden chamber); assay type: cell-based; conditions: chemotactic inhibition rate, compound 1 μM, HEK293 cells transfected with pCDI-CCR4, 5 hours
T1 construct: cDNA fragments of receptor open reading frame were respectively inserted into pcDI; expressed in transfected cells; host or cells: HEK293 cells, transiently transfected by electroporation with pCDI-CCR4
T1 sequence (P51679 1-360): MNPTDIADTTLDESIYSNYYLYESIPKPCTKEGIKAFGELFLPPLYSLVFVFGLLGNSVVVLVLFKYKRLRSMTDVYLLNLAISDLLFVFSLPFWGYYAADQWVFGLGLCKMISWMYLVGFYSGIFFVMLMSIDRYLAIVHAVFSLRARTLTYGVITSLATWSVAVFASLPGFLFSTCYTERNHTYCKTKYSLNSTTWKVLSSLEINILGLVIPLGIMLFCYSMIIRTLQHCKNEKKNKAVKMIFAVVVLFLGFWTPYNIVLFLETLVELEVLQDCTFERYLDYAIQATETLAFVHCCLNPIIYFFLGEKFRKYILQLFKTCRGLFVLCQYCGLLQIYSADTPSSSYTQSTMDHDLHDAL
Source text: Whether or not compounds 1-14 of the present invention can inhibit MDC (Peprotech) mediated chemotactic response of HEK293 cells was studied by using Boyden chamber (Neuro Probe, Inc.).
1. Construction of Receptor Expression Plasmid:
cDNA fragments including human chemokine receptor open reading frame were obtained by the following method: CCR4 receptor was cloned from a cDNA library of K562 cells through polymerase chain reaction (PCR). Primers were designed according to the sequence of Gen-Bank™ accession: CCR4 (NM_005508.2). cDNA fragments of receptor open reading frame were respectively inserted into pcDI (vector transformed in the chamber: eukaryotic expression vector obtained by replacing a BglII KpnI fragment of pcDNA3 (Invitrogen Corporation) plasmid with a BglII KpnI fragment of pCI (Promega Corporation) plasmid) expression vector so as to make them effectively express in HEK293 cells.
HEK293 cells were cultured in RPMI 1640 (Life Technologies, Inc.) containing 10% heat-inactivated fetal bovine serum, 100 U/mL penicillin, 100 μg/mL streptomycin. Each 4×10^6 HEK293 cells/400 μL were transiently transfected through electroporation with 15 μg chemokine receptor expression plasmids, under the condition of 120 V for 20 ms, the instrument used being electric pulse generator (Electro Square porator ECM 830, BTX, San Diego, Calif.). After 36-48 hr, chemotactic assay was carried out.
3. The Inhibitory Effect on MDC/TARC/C27 Mediated Chemotactic Response of HEK293 Cells
Chemokines MDC/TARC/C27 were diluted to 10 ng/mL with RPMI1640 (Life Technologies, Inc.), 0.1% BSA (Sigma), and added to lower holes in a 48-hole chemotactic chamber, 27.5 μL each hole. Eukaryotic expression plasmids pCDI-CCR4 were electrically shifted to HEK293 cells, and cultured normally for 36 hr. The cells were digested, re-suspended with RPMI1640, 10% FBS (Life Technologies, Inc.), and subjected to rotary incubation at 37° C. for 6.5 hours. The cells were washed twice with RPMI1640, and suspended in RPMI1640, 0.1% BSA, with a final concentration of 1×10^6/mL. The cells and the candidate compound dissolved in DMSO (Sigma) were subjected to rotary incubation at room temperature for half an hour, the final concentration of the candidate compound being 1 μM, and the final concentration of DMSO being 0.1%, and then added to upper holes in the chemotactic chamber, 55 μL each hole. The two layers were spaced by a polycarbon membrane with pore size of […] (Neuro Probe, Inc.). The chemotactic reaction was carried out in 5% CO2 at 37° C. for 5 hours. There were three groups of control in the experiment, wherein the first group was positive control, in which the transfected cells were directly added to upper holes without incubated with the candidate compound, while chemokines MDC/TARC/C27 were added to lower holes. The second group was negative control, in which the transfected cells were directly added to upper holes without incubated with the candidate compound, while RPMI1640, 0.1% BSA were added to lower holes. The third group was solvent DMSO control of the candidate compound, in which the transfected cells and DMSO were incubated at room temperature, the final concentration of DMSO being 0.1%, while chemokines MDC/TARC/C27 were added to lower holes. After completion of the chemotactic reaction, the membrane was removed, fixed and stained, and, at 400× high magnification, five horizons were randomly selected to count the cells, which were then summed. The ratio of the sum of the numbers of cells in five horizons at high magnification in each experimental group to the sum of the numbers of cells in five horizons at high magnification in the negative control group is obtained as Chemotactic Index (CI). Chemotactic inhibition rate was calculated as follows: […]

mice rhinitis model = test: Mice rhinitis model experiment (OVA-sensitized BALB/c mice); assay type: in vivo; conditions: Example 8 compound 1 μg/Kg
Experimental: Mice Rhinitis Model Experiment
Female BALB/c mice (6-8 weeks) were sensitized with chicken ovalbumin (OVA, Sigma-Aldrich, St Louis, Mo., USA). The compound of the present invention (for example, the compound of Example 8) was administered to nasal mucosa, at a dose 1 μg/Kg. Glucocorticoid hormonal drug budesonide, a first-line clinical drug, was used as positive control, at a dose 1.28 mg/Kg. Meanwhile, there were provided a normal group wherein the mice were not sensitized and not administered, and an OVA group wherein the mice were sensitized and not administered. The following five indicators were detected: the number of sneezing, the number of nasal scratching within 10 min after administration; IL-4 level in bronchoalveolar lavage fluid; serum IgE level; lung tissue inflammation score. Lung tissue inflammation score was rated according to a single blind method: inflammation was divided into four levels from mild to severe, marked as 0-3 scores: 0 representing no detected inflammation; 1 representing occasional inflammatory cells being visible; 2 representing bronchus or blood vessel being surrounded by eosinophils, but less than five cell layers; 3 representing bronchus or blood vessel being surrounded by a large number of eosinophils, with 5 or more cell layers.

[1] = OVA-sensitized female BALB/c mice, nasal mucosa, budesonide 1.28 mg/Kg, within 10 min after administration
[2] = versus OVA-sensitized group, budesonide 1.28 mg/Kg

## O=C([C@H]1CCCCN1)N1CCN(c2nc(Cl)cc(NCc3ccc(Cl)cc3Cl)n2)CC1 [Compound 8, (R)-{4-{4-chloro-6-[(2,4-dichlorobenzyl)amino]pyrimidin-2-yl}piperazin-1-yl}(piperidin-2-yl)methanone]
CCR4 receptor; chemokine C27 10 ng/mL, read-out: C27 inhibition rate
  inhibition at 1 µM: 69.8%
CCR4 receptor; chemokine MDC 10 ng/mL, read-out: MDC inhibition rate
  inhibition at 1 µM: 79.2%
CCR4 receptor; chemokine TARC 10 ng/mL, read-out: TARC inhibition rate
  inhibition at 1 µM: 60.4%
Mice rhinitis model; IL-4 level in bronchoalveolar lavage fluid, OVA-sensitized mice, budesonide 1.28 mg/Kg
  IL-4: 3.7 ± 0.3 pg/mL
Mice rhinitis model; [1]
  Nasal scratching: 8.0 ± 0.6 times/10 mins
  Sneezing: 29.0 ± 3.5 times/10 mins
Mice rhinitis model; lung tissue inflammation score 0-3, single blind, OVA-sensitized mice, budesonide 1.28 mg/Kg
  Inflammation score: 2.2 ± 0.4
Mice rhinitis model; serum IgE level, OVA-sensitized mice, budesonide 1.28 mg/Kg
  IgE: 2861 ± 49 ng/mL
Mice rhinitis model; versus OVA-sensitized and normal control groups, budesonide 1.28 mg/Kg
  serum IgE level (result in words): higher than that of the normal control group
Mice rhinitis model; [2]
  IL-4 level in bronchoalveolar lavage fluid (result in words): significantly lower than that of the OVA-sensitized group
  lung tissue inflammation score (result in words): lower than that of the OVA-sensitized group
  number of sneezing (result in words): could significantly reduce the number of sneezing
Mice rhinitis model; versus other groups
  number of nasal scratching (result in words): lower than that of any of other groups

Source: patent US9493453B2, “Piperazinyl pyrimidine derivatives, preparation method and use thereof” (INSTITUTE OF PHARMACOLOGY AND TOXICOLOGY ACADEMY OF …, priority 2012, dated 2016)
